In this assay the test system is p62. Nature of the assay: Rat in vivo OHT model, Western blot of p62. To be noted: in vivo OHT eyes, 3 weeks after microbead injection; relative units, control = 1.00; single values. Here is the method:
Example 7. Rat in vivo OHT model induced by intracameral injection of microbeads—For induction of ocular hypertension (OHT) in vivo, sterile 6 μm polystyrene microbeads were injected into the anterior chamber of the left eye of each animal using a single-step, sclero-corneal tunnel approach with a 35G nanoneedle (FIG. 4A). […] After stabilization of elevated IOP, animals were randomly divided into 3 groups (non-treated OHT, AlloP injection, and ent-AlloP injection). AlloP and ent-AlloP were administered as a one-time intravitreal injection one week following bead injection. Non-treated OHT animals received sterile vehicle intravitreally. As a further control, vehicle was intravitreally injected 7 days after intracameral administration of 10 μl of PBS. Three weeks after bead injections, IOP was 26.7±3.7 mmHg in non-treated OHT eyes compared to 9.9±0.9 mmHg in control eyes. […]

“And” between values parts separate entries of the source, which are not always exact repeats. Identical values can stand only once.

In the case of `CC(=O)[C@H]1CC[C@H]2[C@@H]3CC[C@H]4C[C@H](O)CC[C@]4(C)[C@H]3CC[C@]12C` [AlloP, allopregnanolone], the “p62 expression (FIG. 6D), individual experiments 1-4” value was 1.73 and 1.82 and 2.90 and 2.53. Regarding `CC(=O)[C@@H]1CC[C@@H]2[C@H]3CC[C@@H]4C[C@@H](O)CC[C@@]4(C)[C@@H]3CC[C@]21C` [ent-AlloP, ent-allopregnanolone], the “p62 expression (FIG. 6D), individual experiments 1-4” value is 0.92 and 0.91 and 1.00 and 1.61.

Source of the values: patent US20240041898A9, “NEUROSTEROIDS AND ENANTIOMERS THEREOF FOR THE PREVENTION AND TREATMENT OF NEURODEGENERATIVE CONDITIONS” (priority 2019, published 2024).
